The text below walks through data of ChEMBL document CHEMBL5543147, “Discovery and Characterization of a Novel Cereblon-Recruiting PRC1 Bridged PROTAC Degrader” (J Med Chem, 2024).

The subject of experiment [1] is K562. Put plainly: Induction of PRC2 degradation in human K562 cells assessed as reduction of H3K27me3 chromatin mark at 1 to 10 uM incubated for 24 hrs by Western blotting analysis. It is filed as cell-based. To be noted: dose 1-10 µM. Background: In western blotting, separated proteins are transferred to a membrane and probed.
The test system of experiment [2] is K562. As to the kind of experiment: Induction of PRC1 degradation in human K562 cells assessed as reduction of H2AK119ub chromatin mark at 1 to 10 uM incubated for 24 hrs by Western blotting analysis. The class given is cell-based. To be noted: dose 1-10 µM.
In experiment [3] the target is T1, von Hippel-Lindau disease tumor suppressor/Polycomb complex protein BMI-1 (Homo sapiens) (UniProt P40337+P35226). Put plainly: PROTAC activity at […] in human K562 cells assessed as degradation of BMI1 protein expression at 1 to 10 uM incubated for 24 hrs by Western blotting analysis. The class given is cell-based. To be noted: dose 1-10 µM.
For experiment [4], the target named is T2, Protein cereblon/E3 ubiquitin-protein ligase RING2 (Homo sapiens, UniProt Q96SW2+Q99496). As to the kind of experiment: PROTAC activity at CRBN/RING1B in human K562 cells assessed as degradation of RING1B protein expression at 1 to 10 uM incubated for 24 hrs by Western blotting analysis. It is filed as cell-based. Particulars: dose 1-10 µM.
Experiment [5] has as its system K562. As to the kind of experiment: Antiproliferative activity against human K562 cells assessed as cell growth inhibition incubated for 7 days by WST-8 assay. It is filed as functional. Particulars: time 7.0 day. Background: Tetrazolium dyes change colour on reduction, which living cells bring about.
For experiment [6], the system named is K562. As to the kind of experiment: Antiproliferative activity against human K562 cells assessed as increase in HoxA mRNA expression at 10 uM incubated for 24 hrs by RT-qPCR analysis. It is filed as functional, cell-based.
Experiment [7] has as its target T1, von Hippel-Lindau disease tumor suppressor/Polycomb complex protein BMI-1 (Homo sapiens). Put plainly: PROTAC activity at […] in human 786-0 cells with defective VHL assessed as degradation of BMI1 protein expression at 10 uM incubated for 24 hrs by Western blotting analysis. It is filed as cell-based.
Experiment [8] has as its target T2, Protein cereblon/E3 ubiquitin-protein ligase RING2. Put plainly: PROTAC activity at CRBN/RING1B in human 786-0 cells with defective VHL assessed as degradation of RING1B protein expression at 10 uM incubated for 24 hrs by Western blotting analysis. It is filed as cell-based.
Experiment [9] relates to PC-3M. As to the kind of experiment: Induction of PRC2 degradation in human PC-3M cells assessed as reduction of H3K27me3 chromatin mark at 0.2 to 5 uM incubated for 24 hrs by Western blotting analysis. It is filed as cell-based. Particulars: dose 0.2-5 µM.
Experiment [10] has as its system MDA-MB-468. Put plainly: Induction of PRC2 degradation in human MDA-MB-468 cells assessed as reduction of H3K27me3 chromatin mark at 0.2 to 5 uM incubated for 24 hrs by Western blotting analysis. The class given is cell-based. To be noted: dose 0.2-5 µM.
The test system of experiment [11] is K562. Put plainly: Antiproliferative activity against human K562 cells assessed as increase in HoxD mRNA expression at 10 uM incubated for 24 hrs by RT-qPCR analysis. The class given is functional, cell-based. (In general: In qPCR the cycle at which signal appears reflects the starting amount.)
Experiment [12] deals with PC-3M. Put plainly: Induction of PRC1 degradation in human PC-3M cells assessed as reduction of H2AK119ub chromatin mark at 0.2 to 5 uM incubated for 24 hrs by Western blotting analysis. To be noted: dose 0.2-5 µM. The class given is cell-based.
Experiment [13] deals with MDA-MB-468. Put plainly: Induction of PRC1 degradation in human MDA-MB-468 cells assessed as reduction of H2AK119ub chromatin mark at 0.2 to 5 uM incubated for 24 hrs by Western blotting analysis. It is filed as cell-based. Particulars: dose 0.2-5 µM.
Experiment [14] addresses von Hippel-Lindau disease tumor suppressor/Polycomb protein EED (Homo sapiens, UniProt O75530+P40337). As to the kind of experiment: PROTAC activity at VHL/EED in human KARPAS-422 cells assessed as degradation of EED protein expression by Western blotting analysis. It is filed as cell-based.
The target of experiment [15] is von Hippel-Lindau disease tumor suppressor/Histone-lysine N-methyltransferase EZH2 (Homo sapiens, UniProt Q15910+P40337). Put plainly: PROTAC activity at VHL/EZH2 in human KARPAS-422 cells assessed as degradation of EZH2 protein expression by Western blotting analysis. It is filed as cell-based.
The target in experiment [16] is Protein cereblon/Polycomb complex protein BMI-1 (Homo sapiens, UniProt Q96SW2+P35226). As to the kind of experiment: PROTAC activity at […] in human K562 cells assessed as degradation of BMI1 protein expression at 0.1 to 10 uM incubated for 24 hrs by Western blotting analysis. It is filed as cell-based. Particulars: dose 0.1-10 µM.
Experiment [17] has as its target T2, Protein cereblon/E3 ubiquitin-protein ligase RING2. As to the kind of experiment: PROTAC activity at CRBN/RING1B in human K562 cells assessed as degradation of RING1B protein expression at 0.1 to 10 uM incubated for 24 hrs by Western blotting analysis. It is filed as cell-based. To be noted: dose 0.1-10 µM.
The test system of experiment [18] is K562. Put plainly: Induction of PRC1 degradation in human K562 cells assessed as reduction of H2AK119ub chromatin mark at 0.1 to 10 uM incubated for 24 hrs by Western blotting analysis. To be noted: dose 0.1-10 µM. It is filed as cell-based.
The target in experiment [19] is Protein cereblon/Histone-lysine N-methyltransferase EZH2 (Homo sapiens) (UniProt Q15910+Q96SW2). Put plainly: PROTAC activity at CRBN/EZH2 in human K562 cells assessed as degradation of EZH2 protein expression at 0.1 to 10 uM incubated for 24 hrs by Western blotting analysis. The class given is cell-based. To be noted: dose 0.1-10 µM.
Experiment [20] has as its target Protein cereblon/Polycomb protein EED (Homo sapiens, UniProt O75530+Q96SW2). As to the kind of experiment: PROTAC activity at CRBN/EED in human K562 cells assessed as degradation of EED protein expression at 0.1 to 10 uM incubated for 24 hrs by Western blotting analysis. The class given is cell-based. To be noted: dose 0.1-10 µM.
The test system of experiment [21] is K562. As to the kind of experiment: Induction of PRC2 degradation in human K562 cells assessed as reduction of H3K27me3 chromatin mark at 0.1 to 10 uM incubated for 24 hrs by Western blotting analysis. Particulars: dose 0.1-10 µM. The class given is cell-based.
Experiment [22] addresses Protein cereblon/Polycomb protein SUZ12 (Homo sapiens) (UniProt Q15022+Q96SW2). Put plainly: PROTAC activity at CRBN/SUZ12 in human K562 cells assessed as degradation of SUZ12 protein expression at 0.1 to 10 uM incubated for 24 hrs by Western blotting analysis. Particulars: dose 0.1-10 µM. The class given is cell-based.
For experiment [23], the system named is 786-0. Put plainly: Induction of PRC2 degradation in human 786-0 cells with defective VHL assessed as reduction of H3K27me3 chromatin mark at 10 uM incubated for 24 hrs by Western blotting analysis. The class given is cell-based.
For another experiment, the target named is Polycomb protein EED (Homo sapiens, UniProt O75530). As to the kind of experiment: Binding affinity to EED (75 to 441 residues) (unknown origin) expressed in Escherichia coli BL21 (DE3) assessed as dissociation constant by isothermal titration calorimetry.
The test system of experiment [24] is 786-0. Put plainly: Antiproliferative activity against human 786-0 cells assessed as inhibition of cell growth at 0.5 to 30 uM incubated for 7 days by WST-8 assay. It is filed as functional, cell-based. Particulars: dose 0.5-30 µM, time 7.0 day.
The test system of experiment [25] is 786-0. Put plainly: Induction of PRC1 degradation in human 786-0 cells with defective VHL assessed as reduction of H2AK119ub chromatin mark at 10 uM incubated for 24 hrs by Western blotting analysis. The class given is cell-based.

pKd: −log10 of the molar value. Active and inactive are the calls of the source. The calls are words filed in the database; no cut-off is given here. A value given as a limit tells only on which side of the number the result lay.

Chain of Protein cereblon/Polycomb protein EED (O75530 2-441 limits assumed): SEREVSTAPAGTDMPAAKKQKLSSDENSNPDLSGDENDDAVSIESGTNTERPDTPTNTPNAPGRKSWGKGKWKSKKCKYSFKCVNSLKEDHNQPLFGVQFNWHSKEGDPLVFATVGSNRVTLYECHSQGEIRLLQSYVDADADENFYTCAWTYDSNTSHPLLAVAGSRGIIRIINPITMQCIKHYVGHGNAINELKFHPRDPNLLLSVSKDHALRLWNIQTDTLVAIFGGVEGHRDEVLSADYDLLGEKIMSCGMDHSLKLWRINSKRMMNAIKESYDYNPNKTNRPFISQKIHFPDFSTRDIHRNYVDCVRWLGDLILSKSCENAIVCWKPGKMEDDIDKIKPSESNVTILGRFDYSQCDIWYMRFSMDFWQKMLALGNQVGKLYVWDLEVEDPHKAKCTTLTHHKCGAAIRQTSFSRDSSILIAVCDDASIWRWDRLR
Chain of Protein cereblon/Polycomb protein EED (Q96SW2 whole entry partner): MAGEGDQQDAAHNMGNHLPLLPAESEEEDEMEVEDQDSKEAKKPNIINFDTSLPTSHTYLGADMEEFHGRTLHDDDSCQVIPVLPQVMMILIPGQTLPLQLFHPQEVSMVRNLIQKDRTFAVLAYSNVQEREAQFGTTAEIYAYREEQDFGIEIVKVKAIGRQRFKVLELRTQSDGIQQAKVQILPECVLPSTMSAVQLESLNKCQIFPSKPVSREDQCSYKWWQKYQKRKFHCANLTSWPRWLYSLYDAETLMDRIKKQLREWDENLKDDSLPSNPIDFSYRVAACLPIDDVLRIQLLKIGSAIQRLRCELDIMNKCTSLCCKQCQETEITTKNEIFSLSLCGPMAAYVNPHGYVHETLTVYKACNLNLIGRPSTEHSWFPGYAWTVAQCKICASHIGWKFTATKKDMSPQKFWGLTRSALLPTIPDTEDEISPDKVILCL
T2 sequence (Q96SW2 whole entry): as the sequence (Q96SW2 whole entry partner) above
T2 sequence (Q99496 2-336 partner limits assumed): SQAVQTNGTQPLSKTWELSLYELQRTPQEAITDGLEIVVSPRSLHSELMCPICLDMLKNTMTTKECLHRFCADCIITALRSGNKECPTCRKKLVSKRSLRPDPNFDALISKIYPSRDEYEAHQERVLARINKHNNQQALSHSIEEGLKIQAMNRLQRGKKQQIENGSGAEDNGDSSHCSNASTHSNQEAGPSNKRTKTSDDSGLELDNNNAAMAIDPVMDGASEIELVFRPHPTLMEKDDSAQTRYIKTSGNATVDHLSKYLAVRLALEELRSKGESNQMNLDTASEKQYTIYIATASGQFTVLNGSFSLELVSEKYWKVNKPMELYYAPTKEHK
Chain of Protein cereblon/Polycomb protein SUZ12 (Homo sapiens) (Q15022 whole entry, looked up): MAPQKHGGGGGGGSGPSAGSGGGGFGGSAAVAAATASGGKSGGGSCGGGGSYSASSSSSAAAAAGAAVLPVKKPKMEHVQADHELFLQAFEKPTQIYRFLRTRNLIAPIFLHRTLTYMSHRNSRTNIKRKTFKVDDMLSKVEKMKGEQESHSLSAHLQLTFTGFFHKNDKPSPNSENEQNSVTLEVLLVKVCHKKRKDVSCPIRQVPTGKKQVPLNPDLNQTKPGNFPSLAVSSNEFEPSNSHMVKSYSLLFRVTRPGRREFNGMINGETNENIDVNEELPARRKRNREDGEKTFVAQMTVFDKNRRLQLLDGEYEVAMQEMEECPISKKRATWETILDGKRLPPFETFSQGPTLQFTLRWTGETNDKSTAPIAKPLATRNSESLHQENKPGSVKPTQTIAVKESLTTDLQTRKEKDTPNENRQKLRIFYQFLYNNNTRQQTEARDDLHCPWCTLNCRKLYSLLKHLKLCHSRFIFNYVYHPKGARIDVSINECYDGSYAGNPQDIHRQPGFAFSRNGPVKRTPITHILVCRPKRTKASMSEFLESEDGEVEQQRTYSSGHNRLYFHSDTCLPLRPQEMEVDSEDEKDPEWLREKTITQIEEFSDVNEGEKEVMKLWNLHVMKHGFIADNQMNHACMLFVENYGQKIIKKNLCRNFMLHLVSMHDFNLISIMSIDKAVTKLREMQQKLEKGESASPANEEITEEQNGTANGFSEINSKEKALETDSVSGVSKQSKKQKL
Chain of Protein cereblon/Polycomb protein SUZ12 (Homo sapiens) (Q96SW2 whole entry, looked up): as the sequence (Q96SW2 whole entry partner) above
Chain of Protein cereblon/Polycomb complex protein BMI-1 (P35226 whole entry, looked up): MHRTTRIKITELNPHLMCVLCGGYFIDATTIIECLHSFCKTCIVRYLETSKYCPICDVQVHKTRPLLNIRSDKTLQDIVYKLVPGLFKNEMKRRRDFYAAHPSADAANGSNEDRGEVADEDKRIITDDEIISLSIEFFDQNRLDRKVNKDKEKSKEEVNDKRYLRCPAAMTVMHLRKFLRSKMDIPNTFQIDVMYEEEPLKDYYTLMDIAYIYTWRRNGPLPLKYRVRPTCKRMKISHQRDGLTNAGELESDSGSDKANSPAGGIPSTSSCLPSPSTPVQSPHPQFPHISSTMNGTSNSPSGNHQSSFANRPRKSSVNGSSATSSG
Chain of Protein cereblon/Polycomb complex protein BMI-1 (Q96SW2 whole entry, looked up): as the sequence (Q96SW2 whole entry partner) above
T1 sequence (P35226 whole entry, looked up): as the sequence (P35226 whole entry, looked up) above
T1 sequence (P40337 whole entry, looked up): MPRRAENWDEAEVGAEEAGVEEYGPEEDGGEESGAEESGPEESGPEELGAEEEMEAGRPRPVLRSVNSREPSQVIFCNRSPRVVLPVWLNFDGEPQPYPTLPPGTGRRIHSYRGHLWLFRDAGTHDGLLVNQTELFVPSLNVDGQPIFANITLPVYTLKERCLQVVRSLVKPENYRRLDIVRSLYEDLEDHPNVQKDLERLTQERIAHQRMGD
Chain of Protein cereblon/Histone-lysine N-methyltransferase EZH2 (Homo sapiens) (Q15910 whole entry, looked up): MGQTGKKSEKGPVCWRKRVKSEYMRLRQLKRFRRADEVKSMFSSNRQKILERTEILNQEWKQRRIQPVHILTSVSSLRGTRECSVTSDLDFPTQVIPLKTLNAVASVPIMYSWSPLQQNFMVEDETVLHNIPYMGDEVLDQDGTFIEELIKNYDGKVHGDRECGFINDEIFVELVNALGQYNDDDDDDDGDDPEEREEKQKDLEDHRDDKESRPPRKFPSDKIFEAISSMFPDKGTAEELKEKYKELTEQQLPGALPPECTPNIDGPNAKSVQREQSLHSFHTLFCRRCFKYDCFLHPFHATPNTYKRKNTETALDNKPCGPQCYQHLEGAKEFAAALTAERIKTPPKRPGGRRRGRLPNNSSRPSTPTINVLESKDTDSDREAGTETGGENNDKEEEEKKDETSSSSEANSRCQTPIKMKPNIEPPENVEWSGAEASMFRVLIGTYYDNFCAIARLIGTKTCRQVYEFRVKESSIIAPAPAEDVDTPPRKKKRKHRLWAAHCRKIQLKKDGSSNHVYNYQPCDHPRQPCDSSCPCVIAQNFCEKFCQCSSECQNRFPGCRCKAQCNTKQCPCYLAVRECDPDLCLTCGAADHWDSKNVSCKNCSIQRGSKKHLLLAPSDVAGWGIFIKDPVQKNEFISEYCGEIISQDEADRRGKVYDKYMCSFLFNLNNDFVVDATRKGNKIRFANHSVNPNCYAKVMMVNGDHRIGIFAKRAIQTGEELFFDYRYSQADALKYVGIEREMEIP
Chain of Protein cereblon/Histone-lysine N-methyltransferase EZH2 (Homo sapiens) (Q96SW2 whole entry, looked up): as the sequence (Q96SW2 whole entry partner) above
Chain of Polycomb protein EED (O75530 whole entry, the tested form may be a part): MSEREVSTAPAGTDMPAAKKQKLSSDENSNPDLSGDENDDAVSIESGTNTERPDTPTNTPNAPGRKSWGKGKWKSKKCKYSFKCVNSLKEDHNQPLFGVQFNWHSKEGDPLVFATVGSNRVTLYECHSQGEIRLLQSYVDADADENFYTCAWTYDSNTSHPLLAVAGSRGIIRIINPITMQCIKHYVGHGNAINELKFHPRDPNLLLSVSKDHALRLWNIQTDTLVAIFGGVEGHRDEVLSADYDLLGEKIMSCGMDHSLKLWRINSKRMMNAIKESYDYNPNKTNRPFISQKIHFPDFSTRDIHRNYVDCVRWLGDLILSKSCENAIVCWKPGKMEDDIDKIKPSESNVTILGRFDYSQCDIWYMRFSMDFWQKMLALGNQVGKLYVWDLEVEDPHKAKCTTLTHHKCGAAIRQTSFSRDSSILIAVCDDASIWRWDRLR
Chain of von Hippel-Lindau disease tumor suppressor/Polycomb protein EED (O75530 whole entry): as the sequence (O75530 whole entry, the tested form may be a part) above
Chain of von Hippel-Lindau disease tumor suppressor/Polycomb protein EED (P40337 whole entry): as the sequence (P40337 whole entry, looked up) above
Chain of von Hippel-Lindau disease tumor suppressor/Histone-lysine N-methyltransferase EZH2 (Q15910 whole entry): as the sequence (Q15910 whole entry, looked up) above
Chain of von Hippel-Lindau disease tumor suppressor/Histone-lysine N-methyltransferase EZH2 (P40337 whole entry): as the sequence (P40337 whole entry, looked up) above

With `Cc1ncsc1-c1ccc(CNC(=O)[C@@H]2C[C@@H](O)CN2C(=O)[C@@H](NC(=O)CCCNC(=O)c2ccc(-c3cnc(NCc4ccco4)n4cnnc34)cc2)C(C)(C)C)cc1`, the outcome in the experiment on K562 [1] was Active. In addition, the outcome (with K562 [2]; in experiment [3]; in experiment [4]; with K562 [5]) was inactive.

As to `CS(=O)(=O)c1ccc(-c2cnc(NCc3ccco3)n3cnnc23)cc1`, the outcome in the experiment with K562 [1], in the experiment with PC-3M [9] and in the experiment on MDA-MB-468 [10] was Active. For the same molecule, the result (in the experiment with K562 [6]; in experiment [7]; in [3]; in experiment [4]; in experiment [8]; in the experiment on K562 [5]) was inactive. For the same molecule, the result with K562 [11], in the experiment on PC-3M [12] and with MDA-MB-468 [13] was inactive.

A word on the DC50: it is the concentration at which degradation of the target reaches its halfway point. Turning to `Cc1nc(CCC(=O)NCCCC(=O)N[C@H](C(=O)N2C[C@H](O)C[C@H]2C(=O)NCc2ccc(-c3scnc3C)cc2)C(C)(C)C)ccc1-c1cnc(NCc2c(F)ccc3c2CCO3)n2cnnc12`, the DC50 is less than 120 nM in [14] and less than 1000 nM in [15].

Take `O=C(CCCCNc1cccc2c1C(=O)N(C1CCC(=O)NC1=O)C2=O)NCCCCN1CCN(c2ccc(-c3cnc(NCc4ccco4)n4cnnc34)cc2)CC1` (stereo unspecified): the result (in experiment [16]; in experiment [17]; with K562 [18]; in experiment [19]; in experiment [20]; in the experiment with K562 [21]) was inactive. Besides, in experiment [22], the outcome was inactive.

In general, pKd refers to the negative decadic logarithm of the Kd, by convention in mol/L. As to `Cc1ncsc1-c1ccc(CNC(=O)[C@@H]2C[C@@H](O)CN2C(=O)[C@@H](NC(=O)CCCCCCNC(=O)CCCCN2CCN(c3ccc(-c4cnc(NCc5ccco5)n5cnnc45)cc3)CC2)C(C)(C)C)cc1`, the result in the experiment on 786-0 [23] and with 786-0 [25] was Active. For the same molecule, the outcome (in experiment [7]; in experiment [8]; with 786-0 [24]) was inactive. On Polycomb protein EED, the negative logarithm of the Kd (pKd) is 5.52.

In the case of `O=C(CCOCCOCCOCCOCCNc1cccc2c1C(=O)N(C1CCC(=O)NC1=O)C2=O)NCCCCN1CCN(c2ccc(-c3cnc(NCc4ccco4)n4cnnc34)cc2)CC1` (stereo unspecified), the result (in experiment [16]; in experiment [17]; with K562 [18]; in experiment [19]; in experiment [20]; in the experiment on K562 [21]) was inactive. For the same molecule, the outcome in experiment [22] was inactive.

For the molecule `O=C(CCCCCNc1cccc2c1C(=O)N(C1CCC(=O)NC1=O)C2=O)NCCCCN1CCN(c2ccc(-c3cnc(NCc4ccco4)n4cnnc34)cc2)CC1` (stereo unspecified), the outcome (in experiment [16]; in experiment [17]; in the experiment on K562 [18]; in experiment [19]; in experiment [20]; in the experiment with K562 [21]) was inactive. Moreover, in experiment [22], the outcome was inactive.

For the molecule `O=C(CCCNc1cccc2c1C(=O)N(C1CCC(=O)NC1=O)C2=O)NCCCCN1CCN(c2ccc(-c3cnc(NCc4ccco4)n4cnnc34)cc2)CC1` (stereo unspecified), the outcome (in experiment [16]; in experiment [17]; in the experiment with K562 [18]; in experiment [19]; in [20]; with K562 [21]) was inactive. Further, the result in [22] was inactive.

`O=C(CCNc1cccc2c1C(=O)N(C1CCC(=O)NC1=O)C2=O)NCCCCN1CCN(c2ccc(-c3cnc(NCc4ccco4)n4cnnc34)cc2)CC1` (stereo unspecified): the outcome (in [16]; in experiment [17]; in the experiment with K562 [18]; in [19]; in [20]; in the experiment with K562 [21]) was inactive. In experiment [22], the outcome was inactive.

In the case of `O=C(CCOCCOCCNc1cccc2c1C(=O)N(C1CCC(=O)NC1=O)C2=O)NCCCCN1CCN(c2ccc(-c3cnc(NCc4ccco4)n4cnnc34)cc2)CC1` (stereo unspecified), the result (in experiment [16]; in [17]; in the experiment on K562 [18]) was inactive. Further, the result (in [19]; in experiment [20]; with K562 [21]; in experiment [22]) was Active.

Consider `O=C(CCOCCOCCOCCNc1cccc2c1C(=O)N(C1CCC(=O)NC1=O)C2=O)NCCCCN1CCN(c2ccc(-c3cnc(NCc4ccco4)n4cnnc34)cc2)CC1` (stereo unspecified), for which the outcome (in experiment [16]; in experiment [17]; in the experiment with K562 [18]; in experiment [19]; in experiment [20]; in the experiment on K562 [21]) was inactive. In addition, in experiment [22], the outcome was inactive.

As for `O=C(CCOCCNc1cccc2c1C(=O)N(C1CCC(=O)NC1=O)C2=O)NCCCCN1CCN(c2ccc(-c3cnc(NCc4ccco4)n4cnnc34)cc2)CC1` (stereo unspecified), the outcome (in experiment [16]; in experiment [17]; in the experiment on K562 [18]; in [19]; in experiment [20]; in the experiment with K562 [21]) was inactive. For the same molecule, in [22], the outcome was inactive.
